Reference: patent US4443452A, “Dibenzodiazepinones, pharmaceutical compositions thereof and method of use thereof” (Dr. Karl Thomae GmbH, priority 1982, dated 1984)

How the values were obtained:
[1] = test system: muscarinic receptors (oxotremorine-induced lesions in the mucous membrane of the stomach); assay: Oxotremorine test: lesions in the mucous membrane of the stomach (anti-ulcerative effect); assay type: in vivo, female albino rats (Crl:COBS-CD (SD) BR strain); conditions: iv; rat, test substance i.v. 15 minutes before oxotremorine 0.62 mg/kg i.v.; neostigmine 1 mg/kg oral
Description: (§1) Oxotremorine, a specific against for muscarinic receptors produces lesions in the mucous membrane of the stomach in rats and increases their secretion of saliva. This test method was chosen so that any selective activity of an antimuscarinic substance on the stomach could be identified.
(§2) Ten female albino rats (of the Crl:COBS-CD (SD) BR strain) with a body weight of from 120 to 150 gm apiece were used in each treatment group and were kept without food for 24 hours before the start of the test but given free access to drinking water.
(§3) To determine, in preliminary tests, the muscarinic effect of oxotremorine on each of the symptons studies, a dosage/activity curve was drawn up with at least three dosages for each symptom.
(§4) When the antimuscarinic substances were tested, the dosage of oxotremorine which triggered the symptom in question in 90 to 100% of the animals in the preliminary tests was used.
Lesions in the mucous membrane of stomach: 0.62 mg/kg i.v.
(§5) Each antimuscarinic substance was administered intravenously in uniformly graduated doses 15 minutes before the oxotremorine was administered. Control groups were given corresponding quantities of the solvent and suspension agent instead of the test substance. Immediately after the oxotremorine was administered, the animals were placed in a glass case for 15 minutes and observed.
The effects on lesions of the nucous membrane of the stomach were evaluated as follows:
The lesions of the gastric mucous membrane were produced by intravenous injection of 0.62 mg/kg of oxotremorine 30 minutes after the oral administration of 1 mg/kg of neostigmine (a cholinesterase inhibitor). Sixty minutes after the administration of the neostigmine, the animals were killed, and the stomachs were removed, opened, and examined for the presence of any lesions in the mucous membrane. The protective effect of the test substances was expressed as the percentage inhibition (percentage of animals with lesions).
The ED50 and ED70 values were determined using the method of LITCHFIELD and WILCOXON (eee above).

Testing for mydriasis = assay: Testing for mydriasis; parameters: species or system rats; conditions: in vivo, iv; rat; pupil size observed for 10 minutes; blind test
Description: The effect of the test substances on the pupil size in rats was investigated as follows:
The substances were administered intravenously to groups of 10 animals in at least three uniformly graduated doses.

[2] = target: muscarinic receptors (cerebral cortex); assay: Binding to muscarinic receptors, 3H-N-methylscopolamine displacement, cerebral cortex; parameters: species or system male Sprague-Dawley rats; conditions: cerebral cortex homogenate 1:3000; 0.3 n molar 3H-N-methylscopolamine; 30° C., 45 minutes; pH 7.4; read-out: Receptor binding tests IC50, Cortex
Description: (§6) 3. STUDIES OF BINDING TO MUSCARINIC RECEPTORS: DETERMINATION OF THE IC50 VALUES
(§7) The organ donors were male Sprague-Dawley rats with a body weight of from about 180 to 220 gm each. After the heart, stomach, and cerebral cortex had been removed, the remainder of the operation was carried out in ice-cold Hepes-HCl buffer (pH 7.4; 100 m molar NaCl, 10 m molar MgCl2). The smooth muscle of the fundus of the stomach was separated from the mucous membrane of the stomach and subjected to preliminary homogenization. The whole heart was cut up with scissors. All the organs were then homogenized in a Potter apparatus.
(§8) For the binding test, the homogenized organs were diluted as follows:
(§9) The homogenized organ preparations were incubated at a specific concentration of the radioligand and with a series of concentrations of the non-radioactive test substances in an Eppendorf centrifuge tube at 30° C. The duration of incubation was 45 minutes. As substance 0.3 n molar ^3 H-N-methylscopolamine (^3 H-NMS) was used as the radioligand. After incubation had been brought to an end by centrifuging at 14000 g, the radioactivity in the pellet was determined. It represents the sum of the specific and non-specific binding of ^3 H-NMS. The proportion of non-specific binding was defined as the radioactivity which was bound in the presence of 1μ molar quinuclidinylbenzylate. Four measurements were taken in each case. The IC50 values of the non-labelled test substances were determined graphically. They represent the concentration of test substance at which the specific binding of ^3 H-NMS to the muscarinic receptors in the various organs was inhibited by 50%.

[3] = test system: muscarinic receptors (oxotremorine-induced secretion of saliva); assay: Oxotremorine test: inhibition of salivation; assay type: in vivo, female albino rats (Crl:COBS-CD (SD) BR strain); conditions: iv, 0.25 h; rat, test substance i.v. 15 minutes before oxotremorine 0.083 mg/kg i.v.; blind test
Description: as §1, §2, §3, §4
Secretion of saliva: 0.083 mg/kg i.v.
as §5
The ED50 values were determined using the method described by LITCHFIELD and WILCOXON (J. Pharmacol. Exp. Ther. 96, 99, 1949).

[4] = target: muscarinic receptors (smooth muscle of the fundus of the stomach); assay: Binding to muscarinic receptors, 3H-N-methylscopolamine displacement, smooth muscle of fundus of stomach; parameters: species or system male Sprague-Dawley rats; conditions: smooth muscle of fundus homogenate 1:100; 0.3 n molar 3H-N-methylscopolamine; 30° C., 45 minutes; pH 7.4; read-out: Receptor binding tests IC50, Smooth Muscle Fundus of Stomach
Description: as §6, §7, §8
Smooth muscle of the fundus of the stomach: 1:100
as §9

[5] = target: T1, muscarinic receptors (whole heart) (Rattus norvegicus, UniProt P10980); assay: Binding to muscarinic receptors, 3H-N-methylscopolamine displacement, whole heart; parameters: species or system male Sprague-Dawley rats; conditions: whole heart homogenate 1:250; 0.3 n molar 3H-N-methylscopolamine; 30° C., 45 minutes; pH 7.4; read-out: Receptor binding tests IC50, Heart
T1 construct: from tissue; host or cells: whole heart of male Sprague-Dawley rats, homogenate
T1 sequence (P10980 1-466): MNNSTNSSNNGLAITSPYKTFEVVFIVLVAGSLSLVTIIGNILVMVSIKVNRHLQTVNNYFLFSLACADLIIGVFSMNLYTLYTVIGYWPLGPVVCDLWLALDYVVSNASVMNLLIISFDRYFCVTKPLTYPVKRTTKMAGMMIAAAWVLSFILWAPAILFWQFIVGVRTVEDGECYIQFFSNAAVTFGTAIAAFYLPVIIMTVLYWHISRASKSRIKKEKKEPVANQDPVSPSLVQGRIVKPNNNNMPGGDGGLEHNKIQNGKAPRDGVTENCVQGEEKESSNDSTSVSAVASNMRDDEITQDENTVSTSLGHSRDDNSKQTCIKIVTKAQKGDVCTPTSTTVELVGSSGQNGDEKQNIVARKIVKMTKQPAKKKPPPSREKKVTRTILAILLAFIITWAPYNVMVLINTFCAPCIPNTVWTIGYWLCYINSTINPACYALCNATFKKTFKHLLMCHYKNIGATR
Description: as §6, §7, §8
as §9, with “It represents the sum of the specific and non-specific binding of ^3 H-NMS.” left out, “Four measurements were taken in each case.” left out, “They represent the concentration of test substance at which the specific binding of ^3 H-NMS to the muscarinic receptors in the various organs was inhibited by 50%.” left out

Structure (SMILES)	ED50 [1]	ED70 [1]	ED50 at 10 min (Testing for mydriasis)	IC50 [2]	ED50 [3]	IC50 [4]	IC50 [5]
CN1CCC(NC(=O)N2c3ccccc3NC(=O)c3ccccc32)CC1 [B]	0.0025 mg/kg	0.0048 mg/kg	0.023 mg/kg	0.013 µM	0.022 mg/kg	0.1 µM	0.075 µM
CN1CCC(OC(=O)N2c3ccccc3NC(=O)c3ccccc32)CC1 [A]	0.0155 mg/kg	0.036 mg/kg	0.071 mg/kg	0.0055 µM	0.064 mg/kg	0.06 µM	0.042 µM
CN1CCN(NC(=O)N2c3ccccc3NC(=O)c3ccccc32)CC1 [C]	0.0036 mg/kg	0.007 mg/kg	0.0825 mg/kg	0.018 µM	0.032 mg/kg	0.09 µM	
